# From patent publication US20190365675A1, “COMPOSITIONS FOR THE PREVENTION AND/OR TREATMENT OF ALCOHOL USE DISORDERS” (SERVICIO ANDALUZ DE SALUD, priority 2016, published 2019)
# Key:
# MCP-1 = MCP-1 levels (ELISA) in frontal cortex after ethanol intoxication; type: in vivo, Wistar rats; settings: OEA pre-treatment
# Procedure: The animals were treated with intragastric (i.g.) ethanol 3 times a day using an i.g. cannula (16G needle, Fisher Scientific, Waltham, Mass., USA), following a protocol based on a slightly modified standard 4-day alcohol intoxication pattern (Bernier et al., 2002a, b) (FIG. 1A). The ethanol doses were administered every 8 h for a total time of 4 days. The rats treated with ethanol received an initial loading dose of 5 g/kg of ethanol in a 30% solution (w/v) and then a maximum maintenance dose of 3 g/kg, which were determined based on blood ethanol levels (BEL). This repeated standard alcohol intoxication paradigm kept BEL intoxication relatively constant in a range of sedation/ataxia (190 to 430 mg/dl, Table 3), according to the 6-point alcohol intoxication behavior scale (Majchrowicz, 1975). The mean dose of ethanol/rat/day (days 1-4) was 7.06 g/kg, similar to other studies (Obernier et al., 2002a, b). […] The levels of soluble HMGB1, TNF-α, IL-1β and MCP-1 were determined by means of a commercially available enzyme-linked immunosorbent assay kit (ELISA) (Elabscience Biotechnology Co., Ltd., China, for HMGB-1; RayBiotech®, GA, USA, for TNF-α, IL-1β, and MCP-1). The nuclear/cytosol HMGB1 fraction was determined by means of Western blot analysis.
# caspase-3 = experiment: Caspase-3 mRNA, protein and activity (fluorometric assay) in frontal cortex after ethanol intoxication; type: in vivo, Wistar rats; settings: OEA pre-treatment
# Procedure: The animals were treated with intragastric (i.g.) ethanol 3 times a day using an i.g. cannula (16G needle, Fisher Scientific, Waltham, Mass., USA), following a protocol based on a slightly modified standard 4-day alcohol intoxication pattern (Bernier et al., 2002a, b) (FIG. 1A). The ethanol doses were administered every 8 h for a total time of 4 days. The rats treated with ethanol received an initial loading dose of 5 g/kg of ethanol in a 30% solution (w/v) and then a maximum maintenance dose of 3 g/kg, which were determined based on blood ethanol levels (BEL). This repeated standard alcohol intoxication paradigm kept BEL intoxication relatively constant in a range of sedation/ataxia (190 to 430 mg/dl, Table 3), according to the 6-point alcohol intoxication behavior scale (Majchrowicz, 1975). The mean dose of ethanol/rat/day (days 1-4) was 7.06 g/kg, similar to other studies (Obernier et al., 2002a, b). OEA (5 mg/kg, i.p., except initial dose of 10 mg/kg i.p.; synthesized as described in Giuffrida et al., 2000) was dissolved in the vehicle (5% Tween-80 in saline solution) and injected 10 minutes before each of the administrations of ethanol by an intragastric gavage. The anti-inflammatory activity of OEA at 10 mg/kg per intraperitoneal route in the frontal cortex before the injection of LPS (Sayd et al., 2014) was previously referred to. In this study, OEA is repeatedly injected as a pre-treatment before each administration of ethanol. The doses of OEA chosen in this study are in the range of doses tested as being pharmacologically active (5-20 mg/kg, i.p.) (Bilbao et al., 2015). […] The autoradiograph was quantified by densitometry (NIH ImageJ® software, National Biosciences, Lincoln, Nebr. USA) and expressed as optical density (OD). […] The quantitative changes in mRNA levels were estimated by means of RT-PCR, carried out in the presence of the SYBR green primer using a 20-L reaction in a Rotor-Gene (Corbett Research®, Mortlake, NSW, Australia). […] Caspase-3 activity was determined using a fluorometric assay kit (Abnova®, Taiwan) according to the manufacturer's protocol. […]
smiles,measurement,setting,value
"CCCCCCCC/C=C\CCCCCCCC(=O)NCCO [OEA, oleoylethanolamide]",Ethanol-induced increase in MCP-1 levels,MCP-1,prevented
same,Alcohol-induced overexpression of caspase-3 mRNA,caspase-3,unable to prevent
same,Ethanol-induced overexpression of caspase-3 protein,caspase-3,prevented
same,Ethanol-induced increase in activity of caspase-3,caspase-3; fluorometric assay,reverted
